Test results taken from patent US4973578A, “Synthetic peptides derived from the alpha-subunit of human lycoprotein hormones” (Mayo Foundation for Medical Education and Research, priority 1988, dated 1990).
Where “and” joins values, the source holds several entries; their conditions need not be identical. Identical values can stand only once. Entries after “also recorded” stand apart in the source; their conditions may differ. Residues, ends and D or L forms follow the SMILES beside them.

Tests used:
[1] = system: TSH mediated cAMP generation in FRTL-5 cells; test: Inhibition of TSH mediated cAMP generation in FRTL-5 cells; format: cell-based, rat; details: for percent inhibition of TSH mediated cAMP generation: 200 mU/L bTSH, 2 hrs 37° C.
Method: FRTL-5 cells were maintained in Ham's F-12 medium supplemented with 5% calf serum and a 6 hormone preparation including 10 mU/ml bTSH as described by Ambesi-Impiombato et al., Proc. Natl. Acad. Sci. U.S.A., 77:3455 (1980), the disclosure of which is incorporated herein. For all assays herein described, the cells were plated in 24 well plates and grown for 3 days at 37° C. then maintained for 5-7 days in medium supplemented with 10 ug insulin alone prior to assay.
The bioassay was a modification of those previously described by Bidey et al, J. Endocrinol., 101:269 (1984); and Kasagi et al., ACTA Endocrinol., 115:30 (1987). To duplicate culture wells were added varying concentrations of test materials (see below) in a final volume of 300 ul of NaCl free HBSS with 0.5 mM iso-butyl-methyl-xanthine (IBMX, Sigma, St. Louis). In stimulation assays, only synthetic α-subunit peptides were added to the incubation medium. For inhibition assays, the noted concentrations of synthetic α-subunit peptides were added immediately prior to the addition of 200 mU/L bTSH. The plates were incubated at 37° C. in 5% CO2 for 2 hrs then 100 ul of incubation medium was removed and diluted in 900 ul of 0.05M sodium acetate pH 6.2 and assayed for cAMP content by RIA in accordance with procedures described by Wray and Glinos, Am. J. Physiol., 234 (Cell Phisol. 3):C131(1978)); and Steiner et al., J. Biol. Chem., 247:1106 (1972). […] Basal cAMP levels were determined in the presence of HBSS and IBMX alone. In inhibition assays percent inhibition was calculated as follows: [formula]
FIG. 4 reports data obtained for TSH deprived FRTL-5 cells incubated with a fixed amount of bTSH (200 mU/l) by itself or with various concentrations of synthetic peptides. cAMP content of medium was measured after 2 hrs. incubation at 37° C. Percent inhibition of cAMP generation was calculated as noted above.

[2] = system: thyroid stimulating immunoglobulin (TSI) stimulated cAMP in FRTL-5 cells; test: TSI bioassay: inhibition of thyroid stimulating immunoglobulin activity (PEG-precipitated patient immunoglobulin) in FRTL-5 cells; format: cell-based, rat; details: for Percent inhibition of TSI activity, mean: mean of patient samples tested
Source text: Ten patients (8 women and 2 men) with Graves' disease and high levels of TSI were identified after evaluation by FRTL-5 cell bioassay in the clinical chemistry laboratory. (FRTL-5 bioassay described below employing known TSH receptor recognition of various species hormones) Consecutive samples that had indices greater than 15 and sufficient serum remaining for further evaluation were chosen. Seven of the 10 had serum thyroxine values above the normal range and 9 of 10 had TSH levels below the euthyroid range by sensitive immunoradiometric assay [Boots-Celltech Sucrosep, Berkshire, UK, conducted as described in Klee and Hay, J. Clin. Endocrinol. Metab., 64:461 (1987)]. (FIG. 5). For comparison serum from 13 normal subjects was examined for TSI at the same serum dilution as the patient sera. (FIG. 5).
FRTL-5 cells were maintained in Ham's F-12 medium supplemented with 5% calf serum and a 6-hormone preparation (6H) as described by Ambesi-Impiombato, supra. The cells were removed from flasks enzymatically, plated at 150,000 cells per well in 24 well plates, and grown in 6H medium for 4 days. The medium was then replaced with fresh medium supplemented with insulin only (1H) for 7 days prior to assay. The bioassay was a modification of that described by Kasagi et al., supra. Briefly, immunoglobulins were precipitated from 2 ml of serum with 6 ml 20% polyethylene glycol 6000 (Baker, Phillipsburg, N.J.), centrifuged at 2800×g for 20 minutes, and then reconstituted in 2.4 ml buffer (NaCl-free Hanks balanced salt solution, NaCl-free HBSS), containing 1 mM iso-butyl-methyl-xanthine (IBMX, Sigma, St. Louis) and 1.5% BSA. After washing the cells with HBSS, 150 ul of buffer was added to the wells plus varying concentrations of synthetic α-subunit peptides followed immediately by 150 ul of the crude immunoglobulin extract. The plates were incubated for 2 hours at 37° C., 5% CO2 after which 100 ul of medium was removed and diluted in 900 ul 50 mM sodium acetate buffer, pH 6.2. cAMP content was determined by radioimmunoassay using the procedures described in Wray and Glinos, supra and Steiner et al., supra. Basal cAMP levels were determined in the absence of immunoglobulin extract and synthetic peptides for each plate. Basal and maximum levels were determined in quadruplicate; peptide effects were measured in duplicate at each concentration.
Percent increase in cAMP levels over basal was calculated as below: [formula]
Percent inhibition of TSI activity by the synthetic α-subunit peptides was calculated as follows: [formula]
cAMP levels in the presence of synthetic peptides were compared to maximum levels using student's T test for paired samples. Mean percent inhibition between different peptides were compared with student's T test for independent samples. Correlations were determined by Pearson's R.

[3] = target: T1, TSH receptor on human thyroid membranes (Homo sapiens, UniProt P16473); test: TSH radioreceptor assay: inhibition of 125I-bTSH binding to human thyroid membrane preparations; details: for IC50: human thyroid membrane homogenates, ± S.E., read-out: bTSH ED50 (effective dose necessary to inhibit binding of 125I-bTSH by 50%); for inhibition of 125I-bTSH binding, result in words: human thyroid membranes
T1 construct: Thyroid tissue obtained at surgery from patients with Graves' disease was prepared as described by Takahashi et al; from tissue; host or cells: human thyroid tissue from Graves' disease patients, 2000xg membrane fraction
T1 sequence (P16473 21-764): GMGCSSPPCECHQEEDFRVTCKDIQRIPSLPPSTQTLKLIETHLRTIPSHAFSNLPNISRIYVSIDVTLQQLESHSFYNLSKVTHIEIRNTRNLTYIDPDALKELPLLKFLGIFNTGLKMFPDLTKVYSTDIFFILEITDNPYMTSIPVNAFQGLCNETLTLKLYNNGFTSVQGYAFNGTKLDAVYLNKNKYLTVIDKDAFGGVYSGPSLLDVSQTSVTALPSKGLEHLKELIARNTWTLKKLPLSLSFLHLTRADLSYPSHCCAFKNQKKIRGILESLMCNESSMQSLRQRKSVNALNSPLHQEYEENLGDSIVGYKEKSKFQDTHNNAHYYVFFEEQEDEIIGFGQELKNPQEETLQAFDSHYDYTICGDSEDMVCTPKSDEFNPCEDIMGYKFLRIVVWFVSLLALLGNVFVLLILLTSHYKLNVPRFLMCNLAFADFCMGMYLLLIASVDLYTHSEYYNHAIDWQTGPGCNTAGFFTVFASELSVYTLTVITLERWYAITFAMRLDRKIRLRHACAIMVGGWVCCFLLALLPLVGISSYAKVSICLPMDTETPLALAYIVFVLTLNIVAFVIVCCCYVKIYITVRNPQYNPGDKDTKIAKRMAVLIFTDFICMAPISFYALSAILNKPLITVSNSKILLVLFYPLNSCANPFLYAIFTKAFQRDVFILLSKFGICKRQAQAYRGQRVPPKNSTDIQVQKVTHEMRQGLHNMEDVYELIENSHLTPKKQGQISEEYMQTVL
Method: Thyroid tissue obtained at surgery from patients with Graves' disease was prepared as described by Takahashi et al., J. Clin. Endocrinol. Metab. 47:870 (1978), the disclosure of which is incorporated herein. Briefly, the tissue was dissected free of fibrous material, minced with scissors, and homogenized with Polytron homogenizer. The 2000×g fraction was collected by centrifugation, washed and resuspended in 40 mM Tris, 0.1% Bovine Serum Albumin (BSA) pH 7.4 at a concentration of 100 mg equivalents of wet tissue per milliliter. The preparation was stored at -70° C. until used for assay.
Highly purified bovine TSH (30 IU/mg, supplied by Dr. J. G. Pierce, UCLA) was radio-iodinated (Na^125 I, Amersham, Chicago) by a gentle lactoperoxidase procedure described by Takahashi et al., supra, then purified by Sephadex G-100 chromatography.
The membrane assay incubation mixture consisted of […] of the 2000×g membrane fraction, 0.125 ng ^125 I bTSH (approximately 20,000 cpm, 5×10^-12 M), 100 ul of 1% Triton X-100 and noted amounts of test materials in a final volume of 0.5 ml of 40 mM Tris-HCl pH 7.4 plus 0.1% BSA. Nonspecific binding was determined by addition of excess unlabeled bTSH (200 mU/ml, Sigma, St. Louis). After 2 hrs incubation at 25° C., 200 ul of 5 mg/ml bovine gamma globulin and 1 ml 30% polyethylene glycol 6000 (Baker, Phillipsburg, N.J.) in 1M NaCl was added to each tube and the tubes centrifuged at 4000 rpm for 25 minutes. The supernatants were aspirated and pellets counted in a gamma counter. Specific binding averaged 25% of total counts.
FIG. 1 reports 5×10^-12 M labeled bTSH incubated with 10 mg equivalents (wet weight) of 2000×g fraction of thyroid membranes with varying concentrations of unlabeled TSH or synthetic α-subunit peptides. Nonspecific binding was determined in the presence of excess unlabeled TSH.

[4] = Solubility of peptide in assay buffers; format: physicochemical

C[C@H](N)C(=O)N[C@@H](CS)C(=O)N[C@@H](Cc1c[nH]cn1)C(=O)N[C@@H](CS)C(=O)N[C@@H](CO)C(=O)N[C@H](C(=O)N[C@@H](CS)C(=O)N[C@@H](Cc1ccc(O)cc1)C(=O)N[C@@H](Cc1ccc(O)cc1)C(=O)N[C@@H](Cc1c[nH]cn1)C(=O)N[C@@H](CCCCN)C(=O)N[C@@H](CO)C(=O)O)[C@@H](C)O [α81-92, Ala--Cys--His--Cys--Ser--Thr--Cys--Tyr--Tyr--His--Lys--Ser(OH)] (H-ACHCSTCYYHKS-OH)
percent inhibition of TSH mediated cAMP generation ([1]; peptide 66.7 ug/ml): 18.03%
percent inhibition of TSH mediated cAMP generation ([1]; peptide 133.3 ug/ml): 20.83%
inhibition of TSH mediated cAMP generation, in words ([1]; same concentrations as the active peptides): did not significantly inhibit TSH stimulation of cAMP production; also recorded: little or no ability to inhibit TSH mediated cAMP generation
inhibition of cAMP generated by patient immunoglobulin, in words ([2]; FIG. 7 and Table 6): did not significantly inhibit
Percent inhibition of TSI activity ([2]; Pt. sample D, peptide 66.7 ug/ml): -18.5%
Percent inhibition of TSI activity ([2]; Pt. sample D, peptide 133 ug/ml): -7.8%
Percent inhibition of TSI activity ([2]; Pt. sample E, peptide 66.7 ug/ml): 29.7%
Percent inhibition of TSI activity ([2]; Pt. sample E, peptide 133 ug/ml): 33.6%
Percent inhibition of TSI activity ([2]; Pt. sample F, peptide 66.7 ug/ml): 9.6%
Percent inhibition of TSI activity ([2]; Pt. sample F, peptide 133 ug/ml): -5.1%
Percent inhibition of TSI activity ([2]; Pt. sample G, peptide 66.7 ug/ml): 19.0%
Percent inhibition of TSI activity ([2]; Pt. sample G, peptide 133 ug/ml): 14.5%
Percent inhibition of TSI activity ([2]; Pt. sample H, peptide 66.7 ug/ml): 0.6%
Percent inhibition of TSI activity ([2]; Pt. sample H, peptide 133 ug/ml): -11.4%
Percent inhibition of TSI activity ([2]; Pt. sample I, peptide 66.7 ug/ml): -13.3%
Percent inhibition of TSI activity ([2]; Pt. sample I, peptide 133 ug/ml): -17.0%
Percent inhibition of TSI activity ([2]; Pt. sample J, peptide 66.7 ug/ml): -2.0%
Percent inhibition of TSI activity ([2]; Pt. sample J, peptide 133 ug/ml): -7.7%
Percent inhibition of TSI activity, mean ([2]; peptide 66.7 ug/ml): 3.6%
Percent inhibition of TSI activity, mean ([2]; peptide 133 ug/ml): -0.1±6.2% and -0.1%
patient Ig samples with statistically significant inhibition of cAMP ([2]; peptide 133 ug/ml): none of the 7
IC50 [3]: 175 ± 3.8 µM
inhibition of 125I-bTSH binding, result in words ([3]; FIG. 1): dose dependent inhibition; also recorded: considerably less potent

CC[C@H](C)[C@H](NC(=O)[C@@H]1CCCN1C(=O)[C@H](C)NC(=O)CNC(=O)[C@@H]1CCCN1)C(=O)N[C@@H](CC(C)C)C(=O)N[C@@H](CCC(N)=O)C(=O)N[C@@H](CS)C(=O)N[C@@H](CCSC)C(=O)NCC(=O)N[C@@H](CS)C(=O)N[C@@H](CS)C(=O)N[C@@H](Cc1ccccc1)C(=O)N[C@@H](CO)C(=O)N[C@@H](CCCNC(=N)N)C(N)=O [α21-35, Pro--Gly--Ala--Pro--Ile--Leu--Gln--Cys--Met--Gly--Cys--Cys--Phe--Ser--Arg] (H-PGAPILQCMGCCFSR-NH2)
percent inhibition of TSH mediated cAMP generation ([1]; peptide 66.7 ug/ml): 33.88%
percent inhibition of TSH mediated cAMP generation ([1]; peptide 133.3 ug/ml): 52.50%
behaviour in cell binding assay buffer ([4]; FRTL-5 cell binding assay buffer): precipitated in the assay buffer
behaviour in soluble membrane assay ([4]; soluble membrane assay (FIG. 1)): remained in solution
displacement of 125I-bTSH label ([3]; at concentrations greater than 1×10^-5 m, FIG. 1): more than 80%
IC50 [3]: 39.9 ± 0.4 µM
inhibition of 125I-bTSH binding, result in words ([3]; FIG. 1): dose dependent inhibition
